Test results taken from patent publication US9164102B2, “Methods of screening for TRPM4b modulators” (The Queen's Medical Center, priority 2002, dated 2015).

Molecular target: T1, TRPM4b (Homo sapiens, UniProt Q8TD43)
T1 construct: expressed in transfected cells
Assay: Patch-clamp recordings of TRPM4b currents in HEK-293 cells at buffered intracellular Ca2+
Type: cell-based
Conditions: cytosolic/intracellular Ca2+
Experimental: Wild type and tetracycline-inducible […] Flag-TRPM4b-expressing cells were cultured at 37° C./5% CO2 in DMEM supplemented with 10% FBS and 2 mM glutamine. The medium was supplemented with blasticidin (5 μg/ml; Invitrogen) and zeocin (0.4 mg/ml; Invitrogen). Cells were resuspended in media containing 1 μg/ml tetracycline (Invitrogen) 24 hours before experiments. For patch-clamp experiments, cells were kept in a standard Ringer's solution (in mM): NaCl 145, KCl 2.8, CaCl2 1, MgCl2 2, glucose 10, Hepes.NaOH 10, pH 7.2. In some experiments, this solution was modified such that all but 1 mM of NaCl was replaced by choline-Cl (choline-based solution). In experiments where ATP was used, it was added at 1 mM of the Mg^2+ salt and extracellular Ca^2+ concentration was raised to 2 mM. The standard pipette-filling solutions contained (in mM): K-glutamate 145, NaCl 8, MgCl2 1, Cs-BAPTA 10, pH 7.2 adjusted with KOH. In some experiments, [Ca^2+]i was buffered to […] by 10 mM BAPTA and appropriate concentrations of CaCl2 or left unbuffered. For inside-out single-channel recordings, the patch was excised into a similar solution, except that KCl was used instead of K-glutamate. All reagents were purchased from Sigma and dissolved in the standard intracellular solution. […] Capacitive currents and series resistance were determined and corrected before each voltage ramp. […]

T1 sequence (Q8TD43 whole entry): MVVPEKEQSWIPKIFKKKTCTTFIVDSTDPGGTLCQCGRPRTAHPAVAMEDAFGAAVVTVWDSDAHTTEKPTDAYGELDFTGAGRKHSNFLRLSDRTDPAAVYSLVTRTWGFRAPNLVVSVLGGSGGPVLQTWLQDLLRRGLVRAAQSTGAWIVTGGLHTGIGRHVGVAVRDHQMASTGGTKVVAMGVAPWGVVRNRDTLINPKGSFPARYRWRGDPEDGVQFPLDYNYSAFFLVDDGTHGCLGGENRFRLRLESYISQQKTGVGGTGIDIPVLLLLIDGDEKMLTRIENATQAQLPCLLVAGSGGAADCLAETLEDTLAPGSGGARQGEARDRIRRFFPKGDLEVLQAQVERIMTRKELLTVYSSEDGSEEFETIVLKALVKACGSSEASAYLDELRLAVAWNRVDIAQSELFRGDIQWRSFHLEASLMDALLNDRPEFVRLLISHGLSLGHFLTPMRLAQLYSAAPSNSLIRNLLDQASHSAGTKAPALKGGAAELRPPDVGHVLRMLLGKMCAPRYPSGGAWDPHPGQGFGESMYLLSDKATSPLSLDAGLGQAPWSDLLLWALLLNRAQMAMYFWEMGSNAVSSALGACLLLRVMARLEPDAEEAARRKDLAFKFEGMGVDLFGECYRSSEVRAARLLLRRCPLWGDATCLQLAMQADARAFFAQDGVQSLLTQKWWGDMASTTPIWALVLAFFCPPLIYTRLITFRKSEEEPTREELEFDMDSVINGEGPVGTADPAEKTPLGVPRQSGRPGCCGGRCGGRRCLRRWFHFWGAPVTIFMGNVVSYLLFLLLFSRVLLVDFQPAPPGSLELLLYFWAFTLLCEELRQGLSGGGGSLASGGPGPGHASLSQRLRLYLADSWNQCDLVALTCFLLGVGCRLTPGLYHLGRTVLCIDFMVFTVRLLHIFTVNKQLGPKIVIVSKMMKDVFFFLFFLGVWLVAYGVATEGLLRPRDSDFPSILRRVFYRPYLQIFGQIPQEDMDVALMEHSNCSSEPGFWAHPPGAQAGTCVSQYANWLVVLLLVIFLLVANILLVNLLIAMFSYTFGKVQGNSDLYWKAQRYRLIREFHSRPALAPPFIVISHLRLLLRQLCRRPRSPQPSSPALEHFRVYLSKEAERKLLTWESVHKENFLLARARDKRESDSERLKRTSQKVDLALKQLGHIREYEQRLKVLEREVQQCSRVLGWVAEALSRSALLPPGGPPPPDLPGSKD

For [Ca+2] [Ca^2+], the “Ca^2+ concentration at which direct gating of the TRPM4b channel appears to begin” value was about 300 nM.
